In data set [1] the test system is bacteria in aged chicken juice. Briefly: N-docosyl-merocyanine dye coated onto cotton fabric, aged chicken juice. The conditions noted are these: 47 mg in 10 g dimethylformamide, supernatant on woven cotton.
The subject of data set [2] is bacteria in aged chicken juice. The data set can be described thus: Dye solution dropped onto aged chicken juice on SCOTT paper towel (comparative examples). To be noted: comparative dye solution dropped onto aged chicken juice on SCOTT paper towel.
In data set [3] the test system is microbes in aged female human urine. Briefly: N-methylmerocyanine coated onto kitchen paper towel, aged urine.
Data set [4] has as its system budgerigar feces suspension. Briefly: N-methyl merocyanine coated paper towel, pet bird feces suspension. The conditions noted are these: Atlanta city domestic tap water. The procedure:
Budgerigar feces was collected from a caged pet budgie, and shaken in approximately 10 ml of Atlanta city domestic tap water. N-methyl merocyanine dye of structure 33 above was synthesized as described above.

A short description of another data set: Bleach indicator test. It is filed as physicochemical. The conditions noted are these: mixture with Reichardt's dye coated on SCOTT towel.

Structures are written as SMILES.

`CCCCCCCCCCCCCCCCCCCCCC[n+]1ccc(C=Cc2ccc(O)cc2)cc1.[Br-]`: the “color change of orange-yellow dye spots on cotton” value in data set [1] is “color change to very pale yellow”. On to `O=C1/C(=C2\Nc3ccc(S(=O)(=O)[O-])cc3C2=O)Nc2ccc(S(=O)(=O)[O-])cc21.[Na+].[Na+]` [Cl Acid Blue 74, Indigo Carmine], for which the “color change on aged chicken juice” value in data set [2] was “No color changes were observed”. Same read-out and setting: for `Cc1ccc(Nc2ccc(Nc3ccc(C)cc3S(=O)(=O)[O-])c3c2C(=O)c2ccccc2C3=O)c(S(=O)(=O)[O-])c1.[Na+].[Na+]` [Cl Acid Green 25] the value was “No color changes were observed”; for `Cc1ccc(Nc2ccc(Nc3ccc(C)cc3S(=O)(=O)[O-])c3c2C(=O)c2c(O)ccc(O)c2C3=O)c(S(=O)(=O)[O-])c1.[Na+].[Na+]` [Cl Acid Green 41], “No color changes were observed”. With `CC(=O)Nc1ccc(/N=N/c2c(N)ccc3cc(S(=O)(=O)[O-])cc(O)c23)c(S(=O)(=O)[O-])c1.[Na+].[Na+]` [Cl Acid Red 37], in data set [2], the “color change on aged chicken juice” value is “No color changes were observed”. On the same count and under the same terms, for `CCN(CC)c1ccc2c(-c3ccc(S(=O)(=O)O)cc3S(=O)(=O)[O-])c3ccc(=[N+](CC)CC)cc-3oc2c1` [Cl Acid Red 52, sulforhodamine B] the value was “No color changes were observed”.

Take `O=C([O-])C1=NN(c2ccc(S(=O)(=O)[O-])cc2)C(=O)C1N=Nc1ccc(S(=O)(=O)[O-])cc1.[Na+].[Na+].[Na+]` (centres unmarked) [Cl Acid Yellow 23, tartrazine]: the “color change on aged chicken juice” value in data set [2] was “No color changes were observed”. For the compound `COc1cc(/C=C/c2cc[n+](C)cc2)ccc1[O-]` [N-methyl merocyanine dye], the “color change with aged urine filtered through 0.2 micron filter” value in data set [3] (urine stored 24 hours at 37° C.) and in data set [3] (urine stored 8 days at room temperature) was “did not cause a color change” throughout. For the same compound, the “color of coated towel with tap water control” value in data set [4] was “the area remained orange”. Take `Cc1cc(-c2cc(C)c(N)c(C)c2)cc(C)c1N` [TMB, reference compound]: the “response of TMB to dilute bleach” value in the data set “Bleach indicator test” is recorded as “turning orange/yellow color”.

These data come from patent US7399608B2, “Microbial detection and quantification” (Kimberly-Clark Worldwide, Inc., priority 2003, dated 2008).
